# Results taken from ChEMBL document CHEMBL3885881, “DrugMatrix”.
# Organism: Rattus norvegicus
# Assay: DrugMatrix - Regimen: Daily Repeat
# Assay type: toxicity, organism-based, Sprague-Dawley
# Parameters: regimen Daily Repeat, gender Male, age 6-8 weeks
# Conditions: in vivo, po, 2000 mg/kg, route oral GAVAGE, dose level High, vehicle .5 % CMC; for ABSOLUTE BASOPHIL / ABSOLUTE EOSINOPHIL / ABSOLUTE LYMPHOCYTE / ABSOLUTE MONOCYTE / ABSOLUTE SEGMENTED NEUTROPHIL / BASOPHIL / EOSINOPHIL / ERYTHROCYTE COUNT / HEMATOCRIT / HEMOGLOBIN / LEUKOCYTE COUNT / LYMPHOCYTE / MEAN CORPUSCULAR HEMOGLOBIN / MEAN CORPUSCULAR HEMOGLOBIN CONCENTRATION / MEAN CORPUSCULAR VOLUME / MONOCYTE / NEUTROPHIL / NUCLEATED RED BLOOD CELLS / PLATELET COUNT: tissue Blood; for ALANINE AMINOTRANSFERASE / ALBUMIN / ALKALINE PHOSPHATASE / ASPARTATE AMINOTRANSFERASE / BLOOD UREA NITROGEN / CARBON DIOXIDE / CHLORIDE / CHOLESTEROL / CREATINE PHOSPHOKINASE / CREATININE / GLUCOSE / LACTATE DEHYDROGENASE / LIPASE / PHOSPHORUS / POTASSIUM / SODIUM / TOTAL BILIRUBIN / TOTAL PROTEIN / URIC ACID: tissue Plasma
smiles,measurement,setting,value
C[C@]12CCC(=O)C=C1CC[C@@H]1[C@@H]2CC[C@@]2(C)[C@H]1CC[C@]2(C)O [METHYLTESTOSTERONE],ABSOLUTE BASOPHIL,"72 h, time 3 day",0 CELLS/uL
same,ABSOLUTE EOSINOPHIL,"72 h, time 3 day",184 CELLS/uL
same,ABSOLUTE LYMPHOCYTE,"72 h, time 3 day",15708.67 CELLS/uL
same,ABSOLUTE MONOCYTE,"72 h, time 3 day",378.67 CELLS/uL
same,ABSOLUTE SEGMENTED NEUTROPHIL,"72 h, time 3 day",2662 CELLS/uL
same,BASOPHIL,"72 h, time 3 day",0%
same,EOSINOPHIL,"72 h, time 3 day",1%
same,ERYTHROCYTE COUNT,"72 h, time 3 day",6.47 x10E6/uL
same,HEMATOCRIT,"72 h, time 3 day",38.33%
same,HEMOGLOBIN,"72 h, time 3 day",14.53 G/DL
same,LEUKOCYTE COUNT,"72 h, time 3 day",18.93 x10E3/uL
same,LYMPHOCYTE,"72 h, time 3 day",83%
same,MEAN CORPUSCULAR HEMOGLOBIN,"72 h, time 3 day",22.53 pg
same,MEAN CORPUSCULAR HEMOGLOBIN CONCENTRATION,"72 h, time 3 day",37.97 G/DL
same,MEAN CORPUSCULAR VOLUME,"72 h, time 3 day",59.27 fL
same,MONOCYTE,"72 h, time 3 day",2%
same,NEUTROPHIL,"72 h, time 3 day",14%
same,NUCLEATED RED BLOOD CELLS,"72 h, time 3 day",0 /100WBC
same,PLATELET COUNT,"72 h, time 3 day",1292 x10E3/uL
same,ALANINE AMINOTRANSFERASE,"72 h, time 3 day",50.33 u/L
same,ALBUMIN,"72 h, time 3 day",3.93 G/DL
same,ALKALINE PHOSPHATASE,"72 h, time 3 day",352.33 u/L
same,ASPARTATE AMINOTRANSFERASE,"72 h, time 3 day",71.67 u/L
same,BLOOD UREA NITROGEN,"72 h, time 3 day",13 mg/dL
same,CARBON DIOXIDE,"72 h, time 3 day",27.67 mmol/L
same,CHLORIDE,"72 h, time 3 day",101.33 MEQ/L
same,CHOLESTEROL,"72 h, time 3 day",14.67 mg/dL
same,CREATINE PHOSPHOKINASE,"72 h, time 3 day",215 u/L
same,CREATININE,"72 h, time 3 day",0.25 mg/dL
same,GLUCOSE,"72 h, time 3 day",123.33 mg/dL
same,LACTATE DEHYDROGENASE,"72 h, time 3 day",352 u/L
same,LIPASE,"72 h, time 3 day",7.33 u/L
same,PHOSPHORUS,"72 h, time 3 day",10.83 mg/dL
same,POTASSIUM,"72 h, time 3 day",6.24 MEQ/L
same,SODIUM,"72 h, time 3 day",142.83 MEQ/L
same,TOTAL BILIRUBIN,"72 h, time 3 day",0.5 mg/dL
same,TOTAL PROTEIN,"72 h, time 3 day",5.53 G/DL
same,URIC ACID,"72 h, time 3 day",1.17 mg/dL
same,ABSOLUTE BASOPHIL,"120 h, time 5 day",0 CELLS/uL
same,ABSOLUTE EOSINOPHIL,"120 h, time 5 day",0 CELLS/uL
same,ABSOLUTE LYMPHOCYTE,"120 h, time 5 day",14176.33 CELLS/uL
same,ABSOLUTE MONOCYTE,"120 h, time 5 day",40.33 CELLS/uL
same,ABSOLUTE SEGMENTED NEUTROPHIL,"120 h, time 5 day",2783.33 CELLS/uL
same,BASOPHIL,"120 h, time 5 day",0%
same,EOSINOPHIL,"120 h, time 5 day",0%
same,ERYTHROCYTE COUNT,"120 h, time 5 day",6.11 x10E6/uL
same,HEMATOCRIT,"120 h, time 5 day",36.23%
same,HEMOGLOBIN,"120 h, time 5 day",13.97 G/DL
same,LEUKOCYTE COUNT,"120 h, time 5 day",17 x10E3/uL
same,LYMPHOCYTE,"120 h, time 5 day",83%
same,MEAN CORPUSCULAR HEMOGLOBIN,"120 h, time 5 day",22.9 pg
same,MEAN CORPUSCULAR HEMOGLOBIN CONCENTRATION,"120 h, time 5 day",38.53 G/DL
same,MEAN CORPUSCULAR VOLUME,"120 h, time 5 day",59.37 fL
same,MONOCYTE,"120 h, time 5 day",0.33%
same,NEUTROPHIL,"120 h, time 5 day",16.67%
same,NUCLEATED RED BLOOD CELLS,"120 h, time 5 day",0.33 /100WBC
same,PLATELET COUNT,"120 h, time 5 day",1295.33 x10E3/uL
same,ALANINE AMINOTRANSFERASE,"120 h, time 5 day",46 u/L
same,ALBUMIN,"120 h, time 5 day",3.83 G/DL
same,ALKALINE PHOSPHATASE,"120 h, time 5 day",370 u/L
same,ASPARTATE AMINOTRANSFERASE,"120 h, time 5 day",60 u/L
same,BLOOD UREA NITROGEN,"120 h, time 5 day",16.33 mg/dL
same,CARBON DIOXIDE,"120 h, time 5 day",26 mmol/L
same,CHLORIDE,"120 h, time 5 day",105 MEQ/L
same,CHOLESTEROL,"120 h, time 5 day",28.33 mg/dL
same,CREATINE PHOSPHOKINASE,"120 h, time 5 day",184.33 u/L
same,CREATININE,"120 h, time 5 day",0.2 mg/dL
same,GLUCOSE,"120 h, time 5 day",158.33 mg/dL
same,LACTATE DEHYDROGENASE,"120 h, time 5 day",186.67 u/L
same,LIPASE,"120 h, time 5 day",7.67 u/L
same,PHOSPHORUS,"120 h, time 5 day",12.33 mg/dL
same,POTASSIUM,"120 h, time 5 day",6.29 MEQ/L
same,SODIUM,"120 h, time 5 day",149.6 MEQ/L
same,TOTAL BILIRUBIN,"120 h, time 5 day",0.3 mg/dL
same,TOTAL PROTEIN,"120 h, time 5 day",6.03 G/DL
same,URIC ACID,"120 h, time 5 day",1.5 mg/dL
